Laboratory results: patent US20120010161A1, “NOVEL AZAPEPTIDE OR AZAPEPTIDOMIMETIC COMPOUNDS INHIBITING BCRP AND/OR P-GP” (CENTRE NATIONAL DE LA RECHERCHE SCIENTIFIQUE, priority 2009, published 2012)
Where “and” joins values, the source holds several entries; their conditions need not be identical. Identical values can stand only once.

Target: T1, BCRP/ABCG2 (Homo sapiens, UniProt Q9UNQ0)
T1 construct: expressed in transfected cells; host or cells: HEK-293 transfected with pcDNA3.1-ABCG2
T1 sequence (Q9UNQ0 1-655): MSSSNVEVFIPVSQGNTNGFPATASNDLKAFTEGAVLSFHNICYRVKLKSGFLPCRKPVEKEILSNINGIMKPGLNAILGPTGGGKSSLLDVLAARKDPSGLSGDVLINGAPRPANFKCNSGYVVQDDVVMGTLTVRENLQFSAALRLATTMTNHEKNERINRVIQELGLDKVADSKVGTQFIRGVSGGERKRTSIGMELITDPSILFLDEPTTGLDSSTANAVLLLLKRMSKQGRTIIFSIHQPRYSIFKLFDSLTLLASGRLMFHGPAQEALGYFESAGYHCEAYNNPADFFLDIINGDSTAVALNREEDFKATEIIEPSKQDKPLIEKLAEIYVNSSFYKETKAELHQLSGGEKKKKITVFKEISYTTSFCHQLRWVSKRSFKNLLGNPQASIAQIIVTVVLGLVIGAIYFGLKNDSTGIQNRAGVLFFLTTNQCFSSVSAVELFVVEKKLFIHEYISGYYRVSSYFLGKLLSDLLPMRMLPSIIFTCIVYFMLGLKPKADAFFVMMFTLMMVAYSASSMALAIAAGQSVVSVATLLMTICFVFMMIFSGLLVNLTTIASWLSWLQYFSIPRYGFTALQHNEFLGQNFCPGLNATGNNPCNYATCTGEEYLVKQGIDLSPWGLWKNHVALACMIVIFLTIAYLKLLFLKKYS
Test: Flow cytometry: mitoxantrone efflux induced by ABCG2 in transfected HEK-293 cells
Type: cell-based
Conditions: for inhibition at 2 μM / inhibition at 10 μM: human, HEK-293 cells transfected with ABCG2 (vector pcDNA3.1), probe mitoxantrone (5 μM); for inhibition at 2 μM: 2 μM compound, read-out: BCRP/ABCG2 % efficacy 2 μM; for inhibition at 2 μM / inhibition at 10 μM / IC50 / BCRP/ABCG2 IC50, μM: mitoxantrone efflux, HEK-293 cells; for inhibition at 10 μM: 10 μM compound, three independent experiments, read-out: BCRP/ABCG2 % efficacy 10 μM
From the text: Cell cultures. The human […] HEK-293 transfected with the vector pcDNA3.1 including or not the gene encoding ABCG2 (Robey, R. W., Honjo, Y., Morisaki, K., Nadjem, T. A., Runge, S., Risbood, M., Poruchynsky, M. S., Bates, S. E. 2003, Br. J. Cancer 89(10) 1971-1978) was used to test the efficacy of the products on ABCG2. The newborn hamster kidney cell line BHK21 either natural (negative control) or transfected with the vector pNUT-MRP/His expressing the gene encoding ABCC1 (Chang, Xiu-Bao, Hou, Yue-Xian, Riordan, John R. 1997, J. Biol. Chem. 272(49) 30962-30968) was used to test the efficacy of the products on ABCC1. The cell line NIH3T3 natural or transfected with the vector pHaMDR1/A expressing ABCB1 (Cardarelli, Carol O., Aksentijevich, Ivan, Pastan, Ira, Gottesman, Michael M. 1995 Cancer Res. 55 1086-1091) was used to test the efficacy of the compounds on ABCB1. The various cell types are cultured according to the protocols described previously (Robey, R. W., Honjo, Y., Morisaki, K., Nadjem, T. A., Runge, S., Risbood, M., Poruchynsky, M. S., Bates, S. E. 2003, Br. J. Cancer 89(10) 1971-1978 for the line HEK293, Chang, Xiu-Bao, Hou, Yue-Xian, Riordan, John R. 1997, J. Biol. Chem. 272(49) 30962-30968 for the line BHK21 and Cardarelli, Carol O., Aksentijevich, Ivan, Pastan, Ira, Gottesman, Michael M. 1995 Cancer Res. 55 1086-1091 for the line NIH3T3).
FIG. 1 schematically illustrates an efflux of substrate induced by a typical ABC transporter. The substrates S, such as mitoxantrone effluxed with ABCG2 and ABCB1 or daunorubicin effluxed with ABCC1, are accumulated in the cells and expelled by the transporter T, leading to a decrease in intracellular fluorescence. In the case of accumulation of the product, typically by inhibition of the efflux protein, the intracellular fluorescence increases.
Flow cytometry. Transfected or untransfected HEK-293 and BHK-21 cells are in a first stage placed in contact with substrate (5 μM mitoxantrone or 1 μM daunorubicin depending on the transporter). The substrate is accumulated for 30 minutes at 37° C. in the presence or absence of varied concentrations of the test molecules, at 0.5% of DMSO final. After washing with PBS, the cells are incubated in medium containing the same concentrations of test molecules as previously, for 1 hour at 37° C. The drug intracellular fluorescence is measured with a FACscan flow cytometer (Becton Dickinson, Mountain View, Calif.). The fluorescent substrates are excited at 488 nm; the fluorescence emission of mitoxantrone (MTX) is measured at 650 nm and that of daunorubicin is measured at 530 nm. The efficacy of the test molecules is estimated by means of equation 1:
% efficacy=100×(FA−FBG)/(FC−FBG),
in which: • FA corresponds to the intracellular level of substrate measured in the cells overexpressing the transporter T (corresponding to the lowest level of fluorescence in the absence of inhibitor), • FC corresponds to the fluorescence in the control cells not expressing the test transporter. This is thus the maximum accumulation of substrate in the cells), • FBG corresponds to the fluorescence measured in the absence of substrate and in the presence of inhibitor.
The compounds presented in TABLES 2 to 5 were tested by flow cytometry on mammalian cell lines selectively expressing the efflux proteins ABCG2, ABCB1 or ABCC1, as described previously.
The mitoxantrone efflux induced by ABCG2 or ABCB1 and the daunorubicin efflux induced by ABCC1 are estimated by flow cytometry, as described previously, at 10 μM of each test compound, and then at 2 μM for the compounds showing at least 80% efficacy at 10 μM. The concentration inducing 50% inhibition (IC50) was estimated for the most efficient aza derivatives. The values are obtained by three independent experiments and were adjusted using the SigmaPlot software.

SMILES | inhibition at 2 μM | inhibition at 10 μM | IC50 | selectivity toward one or other of the proteins BCRP or P-gp (BCRP versus P-gp) | BCRP/ABCG2 IC50, μM
CC(C)(C)OC(=O)NN(C(=O)N[C@@H](CCCCNC(=O)OCc1ccccc1)C(=O)OC(C)(C)C)c1ccccc1C(=O)OCc1ccccc1 [IA.1, tert-Butyl ester of (2S)-6-(benzyloxycarbonylamino)-2-[1-(2′-(benzyloxycarbonyl)phenyl)-2-(tert-butoxycarbonyl)hydrazino-carbonylamino]hexanoic acid] | 53 ± 10% | 112 ± 6% | 2000 nM |  | 
CC(C)(C)OC(=O)NN(C(=O)N[C@@H](CCCCNC(=O)OCc1ccccc1)C(=O)OC(C)(C)C)c1cccc(C(=O)OCc2ccccc2)c1 [IA.2, tert-Butyl ester of (2S)-6-(benzyloxycarbonylamino)-2-[1-(3′-(benzyloxycarbonyl)phenyl)-2-(tert-butoxycarbonyl)hydrazino-carbonylamino]hexanoic acid] | 86 ± 14% | 112 ± 26% | 1000 nM and 1060 nM | selective | 
CC(C)(C)OC(=O)N[C@H](CNN(CCCCCCNC(=O)OCc1ccccc1)C(=O)OC(C)(C)C)CC(=O)OCc1ccccc1 [IB.1, Benzyl ester of (3S)-4-[2-(6-benzyloxycarbonylaminohexyl)-2-tert-butoxycarbonylhydrazino]-3-tert-butoxycarbonylaminobutyric acid] | 72 ± 1% | 87 ± 27% | 900 ± 50 nM |  | micromolar or submicromolar
CC(C)(C)OC(=O)N[C@H](CNN(CCCCCCNC(=O)OCc1ccccc1)C(=O)OCc1ccccc1)CC(=O)OCc1ccccc1 [IB.11, Benzyl ester of (3S)-4-[2-benzyloxycarbonyl-2-(6-benzyloxycarbonylaminohexyl)hydrazino]-3-tert-butoxycarbonyl-aminobutyric acid] | 92 ± 2% | 104 ± 10% | 500 ± 50 nM |  | micromolar or submicromolar
